In the supplement of paper PMC11451515:

Assays:
Details in all cases: 48 h
NOMO1 [1] = experiment: cell viability relative to DMSO control; higher = less cytotoxic
In short: (§1)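 Viability is expressed as a percentage of DMSO wells within each plate, and cell-free wells serve as background. Seeding densities in the 1536-well plates (5 μl) were 500 cells/well for NOMO1 or SEM leukemia cells and 1000 cells/well for P12-Ichikawa. Each line was adapted for at least four passages in each medium. Library compounds in DMSO were pin-dosed at 47 μM to 0.79 nM (11 points, threefold), and CellTiter-Glo One luminescence was read after 48 h at 37°C.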

P12-Ichikawa [2] = experiment: as above
In short: as §1

SEM cells [3] = experiment: as above
In short: as §1

NOMO1 [4] = experiment: AUC of viability dose-response curve (% viability x log10 dose units); higher = less sensitive
In short: (§2)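 Medium-adapted leukemia cells in 1536-well plates, at 500 or 1000 cells/well, were incubated for 48 h at 37°C with library compounds in DMSO at 11 threefold doses from 47 μM to 0.79 nM. CellTiter-Glo One luminescence normalised per plate to DMSO and cell-free wells was fitted with a four-parameter log-logistic model over log10 doses. Area under the curve was integrated from this fit by trapezoidal rule, with curves beyond full viability scaled and failed quality-control curves removed.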

P12-Ichikawa [5] = experiment: as above
In short: as §2

SEM cells [6] = experiment: as above
In short: as §2

CCn1nnc2c(N3CCOCC3)nc(-c3ccc(NC(=O)Nc4ccc(C(=O)N5CCN(C)CC5)cc4)cc3)nc21
cell viability [%]
Details	NOMO1 [1]	P12-Ichikawa [2]	SEM cells [3]
HPLM + 10% dialyzed FBS, 0.000781 µM	117	103	109
HPLM + 10% dialyzed FBS, 0.00234 µM	109	109	104
HPLM + 10% dialyzed FBS, 0.00702 µM	94.2	99.8	87.4
HPLM + 10% dialyzed FBS, 0.0211 µM	67.2	92.6	82.6
HPLM + 10% dialyzed FBS, 0.0632 µM	63.4	91.6	61.5
HPLM + 10% dialyzed FBS, 0.19 µM	53.9	76.3	58.2
HPLM + 10% dialyzed FBS, 0.569 µM	101	101	103
HPLM + 10% dialyzed FBS, 1.71 µM	65.7	71	54.3
HPLM + 10% dialyzed FBS, 5.12 µM	60.7	76	54.1
HPLM + 10% dialyzed FBS, 15.4 µM	51.4	70.2	49.8
HPLM + 10% dialyzed FBS, 46.1 µM	48	68.9	41.9
RPMI 5 mM glucose + 10% FBS, 0.000781 µM	90.8	97.5	124
RPMI 5 mM glucose + 10% FBS, 0.00234 µM	107	98.4	116
RPMI 5 mM glucose + 10% FBS, 0.00702 µM	94.1	99.4	90.5
RPMI 5 mM glucose + 10% FBS, 0.0211 µM	85.6	83.6	81.3
RPMI 5 mM glucose + 10% FBS, 0.0632 µM	76.5	72.3	64.2
RPMI 5 mM glucose + 10% FBS, 0.19 µM	67.7	55.3	56.2
RPMI 5 mM glucose + 10% FBS, 0.569 µM	105	94.3	114
RPMI 5 mM glucose + 10% FBS, 1.71 µM	79.9	55.2	49.5
RPMI 5 mM glucose + 10% FBS, 5.12 µM	72.4	54.9	48.4
RPMI 5 mM glucose + 10% FBS, 15.4 µM	69.9	56.9	46.4
RPMI 5 mM glucose + 10% FBS, 46.1 µM	61.2	59.4	40.5
RPMI 5 mM glucose + 10% dialyzed FBS, 0.000781 µM	89.3	93.7	101
RPMI 5 mM glucose + 10% dialyzed FBS, 0.00234 µM	97.2	106	95.9
RPMI 5 mM glucose + 10% dialyzed FBS, 0.00702 µM	89.7	88.5	79
RPMI 5 mM glucose + 10% dialyzed FBS, 0.0211 µM	75.3	70.6	71.6
RPMI 5 mM glucose + 10% dialyzed FBS, 0.0632 µM	60.9	69.9	60.3
RPMI 5 mM glucose + 10% dialyzed FBS, 0.19 µM	60.2	59.6	54.3
RPMI 5 mM glucose + 10% dialyzed FBS, 0.569 µM	89.8	103	123
RPMI 5 mM glucose + 10% dialyzed FBS, 1.71 µM	62.5	56.9	50.8
RPMI 5 mM glucose + 10% dialyzed FBS, 5.12 µM	53.5	58.8	49.5
RPMI 5 mM glucose + 10% dialyzed FBS, 15.4 µM	55.9	54.4	44.9
RPMI 5 mM glucose + 10% dialyzed FBS, 46.1 µM	56	50.1	47.8

AUC of viability dose-response curve
Details	NOMO1 [4]	P12-Ichikawa [5]	SEM cells [6]
HPLM + 10% dialyzed FBS	309	391	330
RPMI 5 mM glucose + 10% FBS	395	353	296
RPMI 5 mM glucose + 10% dialyzed FBS	341	352	337

CN1CC[C@H]([C@@H](O)C1)C2=C(O)C=C(O)C3=C2O\C(=C/C3=O)C4=CC=CC=C4Cl
SEM cells [3], HPLM + 10% dialyzed FBS
Details	cell viability [%]
0.000781 µM	104
0.00234 µM	121
0.00702 µM	134
0.0211 µM	132
0.0632 µM	128
0.19 µM	131
0.569 µM	23
1.71 µM	10.1
5.12 µM	6.69
15.4 µM	5.22
46.1 µM	6.07

AUC of viability dose-response curve
Details	NOMO1 [4]	P12-Ichikawa [5]	SEM cells [6]
HPLM + 10% dialyzed FBS	265	306	281
RPMI 5 mM glucose + 10% FBS	288	301	276
RPMI 5 mM glucose + 10% dialyzed FBS	285	300	282

O=C(c1cncc(Br)c1)N1CCC(N2CCCC2)CC1
cell viability [%]
Details	NOMO1 [1]	P12-Ichikawa [2]	SEM cells [3]
HPLM + 10% dialyzed FBS, 0.000781 µM	97.9	107	100
HPLM + 10% dialyzed FBS, 0.00234 µM	122	97.4	118
HPLM + 10% dialyzed FBS, 0.00702 µM	124	106	107
HPLM + 10% dialyzed FBS, 0.0211 µM	110	103	106
HPLM + 10% dialyzed FBS, 0.0632 µM	103	105	115
HPLM + 10% dialyzed FBS, 0.19 µM	105	99.9	106
HPLM + 10% dialyzed FBS, 0.569 µM	97.1	100	106
HPLM + 10% dialyzed FBS, 1.71 µM	105	101	107
HPLM + 10% dialyzed FBS, 5.12 µM	103	100	114
HPLM + 10% dialyzed FBS, 15.4 µM	92.2	95.1	99.7
HPLM + 10% dialyzed FBS, 46.1 µM	85.3	89.9	88.5
RPMI 5 mM glucose + 10% FBS, 0.000781 µM	93.5	93.6	98.4
RPMI 5 mM glucose + 10% FBS, 0.00234 µM	95.9	99.7	106
RPMI 5 mM glucose + 10% FBS, 0.00702 µM	110	100	107
RPMI 5 mM glucose + 10% FBS, 0.0211 µM	90.6	95.9	110
RPMI 5 mM glucose + 10% FBS, 0.0632 µM	91.4	98.2	105
RPMI 5 mM glucose + 10% FBS, 0.19 µM	96.5	96.7	114
RPMI 5 mM glucose + 10% FBS, 0.569 µM	102	100	117
RPMI 5 mM glucose + 10% FBS, 1.71 µM	93.1	94	108
RPMI 5 mM glucose + 10% FBS, 5.12 µM	94.6	103	117
RPMI 5 mM glucose + 10% FBS, 15.4 µM	85.4	92.5	95.1
RPMI 5 mM glucose + 10% FBS, 46.1 µM	84.4	90.3	77.2
RPMI 5 mM glucose + 10% dialyzed FBS, 0.000781 µM	112	95.9	110
RPMI 5 mM glucose + 10% dialyzed FBS, 0.00234 µM	105	102	95
RPMI 5 mM glucose + 10% dialyzed FBS, 0.00702 µM	106	99.6	95
RPMI 5 mM glucose + 10% dialyzed FBS, 0.0211 µM	106	99.6	105
RPMI 5 mM glucose + 10% dialyzed FBS, 0.0632 µM	105	95.2	99
RPMI 5 mM glucose + 10% dialyzed FBS, 0.19 µM	103	95.1	112
RPMI 5 mM glucose + 10% dialyzed FBS, 0.569 µM	100	96.7	102
RPMI 5 mM glucose + 10% dialyzed FBS, 1.71 µM	100	100	98.7
RPMI 5 mM glucose + 10% dialyzed FBS, 5.12 µM	98.7	92	99.1
RPMI 5 mM glucose + 10% dialyzed FBS, 15.4 µM	98.7	87.1	91.2
RPMI 5 mM glucose + 10% dialyzed FBS, 46.1 µM	95.9	92	71.2

AUC of viability dose-response curve
Details	NOMO1 [4]	P12-Ichikawa [5]	SEM cells [6]
HPLM + 10% dialyzed FBS	438	463	469
RPMI 5 mM glucose + 10% FBS	450	463	464
RPMI 5 mM glucose + 10% dialyzed FBS	450	459	463

C=C(c1ccc(C(=O)O)cc1)c1cc2c(cc1C)C(C)(C)CCC2(C)C
Details	cell viability [%]
P12-Ichikawa [2], HPLM + 10% dialyzed FBS, 0.000781 µM	113
P12-Ichikawa [2], HPLM + 10% dialyzed FBS, 0.00234 µM	119
P12-Ichikawa [2], HPLM + 10% dialyzed FBS, 0.00702 µM	121
P12-Ichikawa [2], HPLM + 10% dialyzed FBS, 0.0211 µM	121
P12-Ichikawa [2], HPLM + 10% dialyzed FBS, 0.0632 µM	126
P12-Ichikawa [2], HPLM + 10% dialyzed FBS, 0.19 µM	129
P12-Ichikawa [2], HPLM + 10% dialyzed FBS, 0.569 µM	125
P12-Ichikawa [2], HPLM + 10% dialyzed FBS, 1.71 µM	120
P12-Ichikawa [2], HPLM + 10% dialyzed FBS, 5.12 µM	124
P12-Ichikawa [2], HPLM + 10% dialyzed FBS, 15.4 µM	117
P12-Ichikawa [2], HPLM + 10% dialyzed FBS, 46.1 µM	114
SEM cells [3], RPMI 5 mM glucose + 10% dialyzed FBS, 0.000781 µM	95
SEM cells [3], RPMI 5 mM glucose + 10% dialyzed FBS, 0.00234 µM	110
SEM cells [3], RPMI 5 mM glucose + 10% dialyzed FBS, 0.00702 µM	134
SEM cells [3], RPMI 5 mM glucose + 10% dialyzed FBS, 0.0211 µM	116
SEM cells [3], RPMI 5 mM glucose + 10% dialyzed FBS, 0.0632 µM	116
SEM cells [3], RPMI 5 mM glucose + 10% dialyzed FBS, 0.19 µM	125
SEM cells [3], RPMI 5 mM glucose + 10% dialyzed FBS, 0.569 µM	120
SEM cells [3], RPMI 5 mM glucose + 10% dialyzed FBS, 1.71 µM	118
SEM cells [3], RPMI 5 mM glucose + 10% dialyzed FBS, 5.12 µM	111
SEM cells [3], RPMI 5 mM glucose + 10% dialyzed FBS, 15.4 µM	99.3
SEM cells [3], RPMI 5 mM glucose + 10% dialyzed FBS, 46.1 µM	83.5

AUC of viability dose-response curve
Details	NOMO1 [4]	P12-Ichikawa [5]	SEM cells [6]
HPLM + 10% dialyzed FBS	422	477	465
RPMI 5 mM glucose + 10% FBS	434	470	465
RPMI 5 mM glucose + 10% dialyzed FBS	431	468	461
